The subject of assay [1] is LD (DNA, duplex) GCGCAATTGCGC
Put plainly: UV-Vis absorption, fluorescence. The note with it: K+ 50 mM (KCl); 10 mM Tris-HCl pH 7.0, 1 mM EDTA; 5 µM compound, 10 µM strand; weak new band at 682 nm.

In assay [2] the test system is M3Q (DNA, G4) GAGGGAGGGAGGGAGAGGGA
Put plainly: UV-Vis absorption titration, Job plot, fluorescence. The settings on record: K+ 50 mM (KCl); 10 mM Tris-HCl pH 7.0, 1 mM EDTA, 25 °C; 5 µM compound; Scatchard two-site, constants not given.

The test system of assay [3] is Oxy28 (DNA, G4) GGGGTTTTGGGGTTTTGGGGTTTTGGGG
Described as above. The settings on record: K+ 50 mM (KCl); 10 mM Tris-HCl pH 7.0, 1 mM EDTA, 25 °C; 5 µM compound; Scatchard two-site, constants not given.

The test system of assay [4] is KRAS (DNA, G4) AGGGCGGTGTGGGAAGAGGGAAGAGGGGGAGG
The assay is described as above. The settings on record: K+ 50 mM (KCl); 10 mM Tris-HCl pH 7.0, 1 mM EDTA, 25 °C; 5 µM compound; Scatchard two-site, constants not given.

Assay [5] has as its system Hum24 (DNA, G4) TTAGGGTTAGGGTTAGGGTTAGGG
The assay is described as above. The note with it: K+ 50 mM (KCl); 10 mM Tris-HCl pH 7.0, 1 mM EDTA, 25 °C; 5 µM compound; Scatchard two-site, constants not given.

SMILES strings stand for the structures.

As to `C[N+]1(CCOc2ccc(-c3c4nc(c(-c5ccc(OCC[N+]6(C)CCCCC6)cc5)c5ccc([nH]5)c(-c5ccc(OCC[N+]6(C)CCCCC6)cc5)c5nc(c(-c6ccc(OCC[N+]7(C)CCCCC7)cc6)c6ccc3[nH]6)C=C5)C=C4)cc2)CCCCC1`, the binding entry is “weak” in assay [1]; “yes” in assay [2]; “yes” in assay [3]; “yes” in assay [4]; “yes” in assay [5].

(Values after paper PMC3358308 (2012).)
